Laboratory results reported in patent US5770713A, “Phosphorothioate triester oligonucleotides and method of preparation” (Centre National de la Recherche Scientifique, priority 1993, dated 1998).

Assays:
[1] = Stability of oligonucleotides in culture medium (RPMI + 10% serum), HPLC; assay type: in vitro ADME, fetal calf; conditions: 37° C.
Method: (§1) Distilled water is purified on a MilliQ system (Waters-Millipore), Acetonitrile is of HPLC-far UV quality (Fisons), Ammonium acetate is of "analytical" quality (MERCK), The culture media are composed of 90% of RPMI 1640 and 10% of heat-inactivated fetal calf serum (GIBCO), The cellular extracts were kindly supplied by a person -M. Aubertin (University of Strasbourg I). They are prepared in the following way: CEM cells in the exponential growth phase are separated from the culture medium by centrifugation (10^4 g, 4 min, […]). The residue (approximately100 μl, 5×10^7 cells) is dissolved in 2 ml of buffer (Tris-HCl 140 mM, pH=7.4) and sonicated. The lysate is centrifuged (10^5 g, 1 h, 4°) to eliminate membranes, organelles and chromatin. Two types of eluents were utilized for the HPLC:
(§2) The general conditions are the same as those used for the study of stability of the phosphorothioate triester dimers, as far as the method, the equipment and the chemical products are concerned. […]
30 μl of parent solution of oligonucleotide (being approximately 1.5 A260 units) are removed, which are added to 1470 μl of culture medium which has previously been filtered on a sterile Millex GV filter (Millipore 0.22 μm). […] The samples are immediately analyzed by HPLC (volume injected 80 μl) or preserved at -25° C. with a view to subsequent analysis.

[2] = Stability of oligonucleotides in cellular extract (CEM cells), HPLC; assay type: in vitro ADME; conditions: 37° C.
Method: as §1, §2
10 μl of oligonucleotide parent solution are added to 990 μl of cellular extract which have previously been filtered on a sterile Millex GV filter (Millipore, 0.22 μm). After mixing, fractions (100 μl) are distributed in sterile Eppendorf tubes, placed in an oven at 37° C., sampled at different times and immediately analyzed by HPLC.

[3] = Stability of dimers in cellular extract (CEM cells), HPLC; assay type: in vitro ADME; conditions: 37° C., C0 =5×10^-5 M; for % PS^- (molar fraction of phosphorothioate diester dinucleoside formed, relative to initial quantity of phosphorothioate triester dinucleoside): after complete decomposition of the starting triester; for half-life at 50 µM: human, cem cell extract, read-out: t1/2 (time at the end of which half of the starting product has decomposed)
Method: as §1
(§3) A 10^-2 M solution of the compound to be studied is prepared in DMSO.
(§4) This solution is diluted with water to give a parent solution of concentration 5×10^-4 M.
b) Study of stability in cellular extract: 100 μl of parent solution of the compound to be studied are added to 900 μl of cellular extract which has previously been filtered on a Millex GV sterile filter (Millipore, 0.22 μm). After mixing, fractions (100 μl) are distributed in Eppendorf tubes. These tubes are placed in an oven at 37° C. and removed as a function of the kinetic development. The samples are immediately analyzed by HPLC.
(§5) tl/2 =time at the end of which half of the starting product has decomposed
(§6) % PO^- , % PS^- =molar fractions of phosphodiester dinucleoside and of phosphorothioate diester dinucleoside, expressed in relation to the initial quantity of phosphorothioate triester dinucleoside.
(§7) The percentage of PS^- corresponds to the quantity of phosphorothioate diester dinucleoside formed after complete decomposition of the starting phosphorothioate triester dinucleoside (considering that the phosphorothioate diester dinucleoside is stable under the condition used and accumulates).

[4] = Stability of dimers in culture medium (RPMI + 10% serum), HPLC; assay type: in vitro ADME, fetal calf; conditions: 37° C., C0 =5×10^-5 M; for % PS^- (molar fraction of phosphorothioate diester dinucleoside formed, relative to initial quantity of phosphorothioate triester dinucleoside): after complete decomposition of the starting triester; for % PO^- (molar fraction of phosphodiester dinucleoside, relative to initial quantity of phosphorothioate triester dinucleoside): calculated as 100-% PS^- formed; for half-life at 50 µM: read-out: t1/2 (time at the end of which half of the starting product has decomposed) (converted)
Method: as §1, §3, §4
a) Study of stability in culture medium:
100 μl of parent solution of the compound to be studied are added to 900 μl of culture medium which has previously been filtered on a Millex GV sterile filter (Millipore, 0.22 μm). After mixing, fractions (100 μl) are distributed in sterile Eppendorf tubes. These tubes are placed in an oven at 37° C. and removed as a function of the kinetic development. The samples are immediately analyzed by HPLC (volume injected: 80 μl) or preserved at -25° C. with a view to subsequent analysis.
as §5, §6, §7

| Molecule | t1/2 of disappearance of the starting oligonucleotide [1] | t1/2 of disappearance of the starting oligonucleotide [2] | t1/2 of formation of the totally deprotected oligonucleotide [2] | % PS^- (molar fraction of phosphorothioate diester dinucleoside formed, relative to initial quantity of phosphorothioate triester dinucleoside) [3] | half-life at 50 µM [3] | % PS^- (molar fraction of phosphorothioate diester dinucleoside formed, relative to initial quantity of phosphorothioate triester dinucleoside) [4] | % PO^- (molar fraction of phosphodiester dinucleoside, relative to initial quantity of phosphorothioate triester dinucleoside) [4] | half-life at 50 µM [4] |
| --- | --- | --- | --- | --- | --- | --- | --- | --- |
| 6b: completely alkylated phosphorothioate dodecamer 6b; from d(CP(S) Ap(s) Cp(s) Cp(s) Cp(s) Ap(s) Ap(s) Tp(s) Tp(s) Cp(s) Tp(s) G) SEQ. ID. NO: 1 (CACCCAATTCTG; DNA, backbone not given here; all phosphorothioate linkages alkylated) [Compound 6b, completely alkylated phosphorothioate dodecamer 6b; ID; NO: 1] | 55 min | < 2 min | 25 min | – | – | – | – | – |
| Cc1cn([C@H]2C[C@H](OP(=O)(OC[C@H]3O[C@@H](n4cc(C)c(=O)[nH]c4=O)C[C@@H]3O)SCOC(=O)C(C)(C)C)[C@@H](CO)O2)c(=O)[nH]c1=O (stereo partly drawn) [Compound 4a, O-(Thymidin-3'-yl) O-(thymidin-5'-yl) S-(pivaloyloxymethyl) phosphorothioate] | – | – | – | 100% | 40 min | 20% | 80% | 360 min |
| CC(=O)SCCSP(=O)(OC[C@H]1O[C@@H](n2cc(C)c(=O)[nH]c2=O)C[C@@H]1O)O[C@H]1C[C@H](n2cc(C)c(=O)[nH]c2=O)O[C@@H]1CO (stereo partly drawn) [Compound 4b, O-(Thymidin-3'-yl) O-(thymidin-5'-yl) S-(acetylthioethyl) phosphorothioate] | – | – | – | 100% | 10 min | 50% | 50% | 420 min |
| CC(=O)SCSP(=O)(OC[C@H]1O[C@@H](n2cc(C)c(=O)[nH]c2=O)C[C@@H]1O)O[C@H]1C[C@H](n2cc(C)c(=O)[nH]c2=O)O[C@@H]1CO (stereo partly drawn) [Compound 4c, O-(Thymidin-3'-yl) O-(thymidin-5'-yl) S-(acetylthiomethyl) phosphorothioate] | – | – | – | 100% | 5 to 10 min | 80% | 20% | 60 min |
